From ChEMBL document CHEMBL4043168, “The design and SAR of a novel series of 2-aminopyridine based LRRK2 inhibitors” (Bioorg Med Chem Lett, 2017)

Assays:
[1] = target: T1, STE20-related kinase adapter protein alpha (Homo sapiens) (UniProt Q7RTN6); assay: Inhibition of STLK5 conserved Lys2 (SVKASHILISVDGK) in human PBMC at 1 uM
T1 sequence (whole entry): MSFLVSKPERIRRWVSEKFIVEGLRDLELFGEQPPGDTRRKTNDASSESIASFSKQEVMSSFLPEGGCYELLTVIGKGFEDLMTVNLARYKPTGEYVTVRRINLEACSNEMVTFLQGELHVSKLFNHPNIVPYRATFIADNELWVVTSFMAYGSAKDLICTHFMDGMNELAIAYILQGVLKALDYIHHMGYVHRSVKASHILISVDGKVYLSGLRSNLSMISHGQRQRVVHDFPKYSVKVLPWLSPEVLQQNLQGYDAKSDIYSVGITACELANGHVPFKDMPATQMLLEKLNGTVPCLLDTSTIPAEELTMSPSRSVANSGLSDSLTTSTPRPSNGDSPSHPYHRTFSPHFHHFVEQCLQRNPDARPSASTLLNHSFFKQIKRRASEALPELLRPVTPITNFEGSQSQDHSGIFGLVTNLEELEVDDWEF

[2] = target: Serine/threonine-protein kinase TAO2 (Homo sapiens) (UniProt Q9UL54); assay: Inhibition of TAO2 conserved Lys2 (DVKAGNILLSEPGLVK) in human PBMC at 1 uM
[3] = target: 5'-AMP-activated protein kinase catalytic subunit alpha-2 (Homo sapiens) (UniProt P54646); assay: Inhibition of AMPKa2 labeling at conserved Lys2 (DLKPENVLLDAHMNAK) in human PBMC at 1 uM
[4] = target: T2, Serine/threonine-protein kinase 3 (Homo sapiens) (UniProt Q13188); assay: Inhibition of MST2 conserved Lys1 (ESGQVVAIKQVPVESDLQEIIK) in human PBMC at 1 uM
T2 sequence (whole entry): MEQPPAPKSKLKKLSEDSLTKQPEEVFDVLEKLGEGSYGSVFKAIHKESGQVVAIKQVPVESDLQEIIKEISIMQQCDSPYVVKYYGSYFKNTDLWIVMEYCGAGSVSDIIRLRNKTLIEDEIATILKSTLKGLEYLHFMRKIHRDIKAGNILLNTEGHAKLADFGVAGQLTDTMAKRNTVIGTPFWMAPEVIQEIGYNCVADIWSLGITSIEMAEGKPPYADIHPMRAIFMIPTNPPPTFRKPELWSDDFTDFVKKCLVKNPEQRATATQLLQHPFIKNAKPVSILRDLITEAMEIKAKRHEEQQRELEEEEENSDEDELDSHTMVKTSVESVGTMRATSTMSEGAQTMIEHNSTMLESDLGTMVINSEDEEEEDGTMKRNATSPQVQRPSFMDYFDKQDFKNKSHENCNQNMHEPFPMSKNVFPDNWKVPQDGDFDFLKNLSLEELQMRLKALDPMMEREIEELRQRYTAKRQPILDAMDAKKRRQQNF

[5] = target: T3, Phosphatidylinositol 4,5-bisphosphate 3-kinase catalytic subunit delta isoform (Homo sapiens) (UniProt O00329); assay: Inhibition of PIK3CD ATP binding site (VNWLAHNVSKDNRQ) in human PBMC at 0.1 uM
T3 sequence (whole entry): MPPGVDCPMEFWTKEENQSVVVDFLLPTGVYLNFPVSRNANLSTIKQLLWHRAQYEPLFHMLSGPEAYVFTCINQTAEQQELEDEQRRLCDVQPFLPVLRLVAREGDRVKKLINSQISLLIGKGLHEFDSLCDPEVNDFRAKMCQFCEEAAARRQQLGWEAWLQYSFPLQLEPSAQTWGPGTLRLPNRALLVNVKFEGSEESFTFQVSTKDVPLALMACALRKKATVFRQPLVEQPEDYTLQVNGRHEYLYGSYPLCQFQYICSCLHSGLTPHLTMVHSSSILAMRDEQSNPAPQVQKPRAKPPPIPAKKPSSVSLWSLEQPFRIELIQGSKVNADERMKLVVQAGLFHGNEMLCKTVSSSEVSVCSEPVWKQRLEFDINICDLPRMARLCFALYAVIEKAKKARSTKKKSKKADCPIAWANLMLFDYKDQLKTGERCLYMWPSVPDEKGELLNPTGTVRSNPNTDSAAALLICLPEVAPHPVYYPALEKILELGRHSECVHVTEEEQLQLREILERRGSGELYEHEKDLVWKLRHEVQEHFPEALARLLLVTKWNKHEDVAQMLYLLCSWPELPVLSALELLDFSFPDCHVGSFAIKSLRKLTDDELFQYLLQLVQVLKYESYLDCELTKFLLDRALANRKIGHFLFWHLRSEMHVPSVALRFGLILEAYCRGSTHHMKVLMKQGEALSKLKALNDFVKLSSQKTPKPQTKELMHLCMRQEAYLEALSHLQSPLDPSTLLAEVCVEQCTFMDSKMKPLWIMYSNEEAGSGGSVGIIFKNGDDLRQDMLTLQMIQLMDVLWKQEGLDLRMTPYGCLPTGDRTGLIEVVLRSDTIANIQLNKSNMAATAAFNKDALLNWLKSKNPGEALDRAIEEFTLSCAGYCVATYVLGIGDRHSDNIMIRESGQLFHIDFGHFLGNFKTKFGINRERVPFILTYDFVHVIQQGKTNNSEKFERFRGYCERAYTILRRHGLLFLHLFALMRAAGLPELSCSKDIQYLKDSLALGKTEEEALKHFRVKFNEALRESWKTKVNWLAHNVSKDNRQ

Serine/threonine-protein kinase TAO2 (Homo sapiens), sequence (Q9UL54 whole entry): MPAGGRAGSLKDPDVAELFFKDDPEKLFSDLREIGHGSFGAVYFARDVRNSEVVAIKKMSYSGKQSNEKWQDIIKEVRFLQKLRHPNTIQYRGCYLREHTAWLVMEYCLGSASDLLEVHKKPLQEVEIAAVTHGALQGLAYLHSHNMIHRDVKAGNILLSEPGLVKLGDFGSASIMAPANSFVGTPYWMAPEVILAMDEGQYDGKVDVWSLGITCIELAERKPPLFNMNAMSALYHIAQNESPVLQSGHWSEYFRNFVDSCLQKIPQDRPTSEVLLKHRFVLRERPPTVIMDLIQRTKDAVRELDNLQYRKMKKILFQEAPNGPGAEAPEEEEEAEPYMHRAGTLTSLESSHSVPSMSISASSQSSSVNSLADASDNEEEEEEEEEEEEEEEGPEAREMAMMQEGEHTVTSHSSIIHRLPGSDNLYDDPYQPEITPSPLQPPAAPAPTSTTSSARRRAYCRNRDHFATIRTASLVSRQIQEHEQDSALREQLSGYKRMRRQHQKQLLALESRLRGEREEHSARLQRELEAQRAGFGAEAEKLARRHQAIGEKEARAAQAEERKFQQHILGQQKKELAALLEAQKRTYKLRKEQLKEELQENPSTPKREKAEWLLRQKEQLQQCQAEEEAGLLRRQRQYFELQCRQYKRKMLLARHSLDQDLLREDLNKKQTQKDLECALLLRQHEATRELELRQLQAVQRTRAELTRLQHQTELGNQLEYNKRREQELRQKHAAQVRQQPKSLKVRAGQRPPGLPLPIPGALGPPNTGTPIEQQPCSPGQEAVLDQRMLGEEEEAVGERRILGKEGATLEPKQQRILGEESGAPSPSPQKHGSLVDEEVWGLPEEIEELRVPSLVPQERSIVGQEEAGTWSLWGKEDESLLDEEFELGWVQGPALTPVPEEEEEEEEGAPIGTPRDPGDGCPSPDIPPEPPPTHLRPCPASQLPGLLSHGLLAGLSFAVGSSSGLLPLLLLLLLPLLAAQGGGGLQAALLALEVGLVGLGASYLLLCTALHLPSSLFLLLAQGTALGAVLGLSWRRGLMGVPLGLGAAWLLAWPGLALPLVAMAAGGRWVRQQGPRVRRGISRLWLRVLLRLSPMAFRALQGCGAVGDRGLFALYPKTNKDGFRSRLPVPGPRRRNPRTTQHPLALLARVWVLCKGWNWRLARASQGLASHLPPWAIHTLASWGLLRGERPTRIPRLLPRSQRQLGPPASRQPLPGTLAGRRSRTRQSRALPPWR
5'-AMP-activated protein kinase catalytic subunit alpha-2 (Homo sapiens), sequence (P54646 whole entry, looked up): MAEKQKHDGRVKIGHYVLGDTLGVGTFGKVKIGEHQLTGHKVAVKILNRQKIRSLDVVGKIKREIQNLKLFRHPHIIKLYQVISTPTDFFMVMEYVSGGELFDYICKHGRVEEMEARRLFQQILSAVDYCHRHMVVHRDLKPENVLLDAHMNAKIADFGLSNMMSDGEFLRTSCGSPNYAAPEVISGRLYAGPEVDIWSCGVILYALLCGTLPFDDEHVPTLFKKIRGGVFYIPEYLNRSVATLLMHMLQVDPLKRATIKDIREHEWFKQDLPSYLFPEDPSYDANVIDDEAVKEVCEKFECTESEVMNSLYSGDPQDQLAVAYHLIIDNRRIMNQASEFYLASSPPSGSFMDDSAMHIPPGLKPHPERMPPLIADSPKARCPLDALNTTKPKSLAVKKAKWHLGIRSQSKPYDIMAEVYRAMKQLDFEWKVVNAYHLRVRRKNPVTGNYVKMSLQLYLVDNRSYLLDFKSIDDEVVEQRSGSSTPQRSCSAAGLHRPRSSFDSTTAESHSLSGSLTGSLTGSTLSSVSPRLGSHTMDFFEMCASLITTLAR

## CC(C)n1cc(-c2cc(-c3ccc(CN4CCOCC4)cc3)cnc2N)nn1
[1]
  inhibition: 8.7%
[2]
  inhibition: -3.8%
[3]
  inhibition: 17.5%
[4]
  inhibition: -6%
[5]
  inhibition: 0.5%
